Data published in article PMC10578352, “Identification of a Protein Arginine Methyltransferase 7 (PRMT7)/Protein Arginine Methyltransferase 9 (PRMT9) Inhibitor” (Journal of Medicinal Chemistry, 2023).

Tests used:
Assay type in all cases: biochemical
PRMT1 = biological target: T1, PRMT1 (Homo sapiens, UniProt Q99873); test: HotSpot radioisotope-based filter assay, PRMT1; conditions: Figure 2; from IC50 values of ref 31
T1 construct: PRMT1 (residues 2–371, C-terminus); with an N-terminal GST-tag; GST (N); purchased Reaction Biology Corporation
Experimental: (§1) Then, ^3H-SAM (final concentration of 1 μM) was delivered into the reaction mixture to initiate the reaction. After incubation for 60 min at 30 °C, the reaction mixture was delivered to filter-paper for detection (as assessed by scintillation). Data were analyzed using Excel and GraphPad Prism 6.0 software (GraphPad Software Inc., San Diego, CA) for IC50 curve fits using sigmoidal dose vs response - variable slope (four parameters) equations.

SMYD3/KMT3E = biological target: T2, SMYD3/KMT3E (Homo sapiens, UniProt Q9H7B4); test: HotSpot KMT activity assay, SMYD3; conditions: read-out: % SMYD3 residual activity
T2 construct: the human recombinant SMYD3 (residues 2–428, C-terminus); C-terminal His-tag; His (C); purchased Reaction Biology Corporation
T2 sequence (Q9H7B4 2-428): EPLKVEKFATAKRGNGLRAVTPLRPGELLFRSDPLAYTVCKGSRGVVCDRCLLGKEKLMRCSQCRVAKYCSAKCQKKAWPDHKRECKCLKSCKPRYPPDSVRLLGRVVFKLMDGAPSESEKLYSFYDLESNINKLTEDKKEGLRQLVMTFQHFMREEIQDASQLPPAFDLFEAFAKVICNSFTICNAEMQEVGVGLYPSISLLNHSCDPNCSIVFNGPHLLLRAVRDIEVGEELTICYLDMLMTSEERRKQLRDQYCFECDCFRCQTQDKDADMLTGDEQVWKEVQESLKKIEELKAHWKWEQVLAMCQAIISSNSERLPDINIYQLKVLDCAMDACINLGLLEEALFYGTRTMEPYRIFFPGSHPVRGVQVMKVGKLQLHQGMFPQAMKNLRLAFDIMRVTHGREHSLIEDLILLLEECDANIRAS
Source text: ; MW = 35.4 kDa; Genbank Accession # NM_018489), or the human recombinant EZH2-containing five-member polycomb repressive complex 2 (including EZH2 residues 2–746, AEBP2 2–517, EED 2–441, RbAp48 2–425, SUZ12 2–739; all full-length; with N-terminal Flag-tag on EED and N-terminal His-tag on all others; MW = 333.8 kDa; Genbank Accession # NM_001203247, NM_001114176, NM_003797, NM_005610, NM_015355), or the human recombinant G9a (residues 913–1193, C-terminus; with an N-terminal His-tag; MW = 34.6 kDa; Genbank Accession # NM_006709.3), or the human recombinant MLL1 complex (including MLL1 residues 3745–3969, C-terminus, WDR5 22–334, C-terminus, RbBP5 1–538, C-terminus, ASH2L 2–534, C-terminus, DPY-30 1–99, C-terminus; N-terminal His-tag on all subunits; MW = 212.0 kDa; Genbank Accession # NM_005933, NM_017588, NM_005057, NM_001105214, NM_0325742), or the human recombinant SET7/9 (residues 2–366, C-terminus; with a N-terminal GST-tag and a C-terminal His-tag; MW = 68.5 kDa; Genbank Accession # NM_030648), or the human recombinant SMYD3 (residues 2–428, C-terminus; C-terminal His-tag; MW = 50.1 kDa; Genbank Accession # NM_001167740), or the human recombinant SUV39H2 (residues 46–410, C-terminus; N-terminal fusion protein with a C-terminal His-tag; MW = 98.8 kDa; GenBank Accession No. NM_001193424), or the human recombinant DOT1L (residues 1–416; N-terminal GST-tag; MW = 80.0 kDa; Genbank Accession # NM_032482) was added to a solution of the proper substrate (oligo nucleosomes for ASH1L, MLL1 complex, and DOT1L, final concentration 0.05 mg/mL; core histone for EZH2 complex and SET7/9, final concentration 0.05 mg/mL; histone H3 for SUV39H2, final concentration 5 μM; histone H3 1–21 for G9a, final concentration 2.5 μM) in freshly prepared reaction buffer (50 mM Tris-HCl (pH 8.5), 5 mM MgCl2, 50 mM NaCl, 1 mM DTT, 1 mM PMSF, 1% DMSO) and gently mixed. […] After incubation for 60 min at 30 °C, the reaction mixture was delivered to filter paper for detection (as assessed by scintillation). […] Values obtained for each compound are mean ± SD determined for two separate experiments.

PRMT7 = biological target: T3, PRMT7 (Homo sapiens, UniProt Q9NVM4); test: HotSpot radioisotope-based filter assay, PRMT7; conditions: 5 μM GST-GAR, 3H-SAM 1 μM
T3 construct: PRMT7 (residues 2–692, C-terminus); with an N-terminal His-tag; His (N); purchased Reaction Biology Corporation
T3 sequence (Q9NVM4 2-692): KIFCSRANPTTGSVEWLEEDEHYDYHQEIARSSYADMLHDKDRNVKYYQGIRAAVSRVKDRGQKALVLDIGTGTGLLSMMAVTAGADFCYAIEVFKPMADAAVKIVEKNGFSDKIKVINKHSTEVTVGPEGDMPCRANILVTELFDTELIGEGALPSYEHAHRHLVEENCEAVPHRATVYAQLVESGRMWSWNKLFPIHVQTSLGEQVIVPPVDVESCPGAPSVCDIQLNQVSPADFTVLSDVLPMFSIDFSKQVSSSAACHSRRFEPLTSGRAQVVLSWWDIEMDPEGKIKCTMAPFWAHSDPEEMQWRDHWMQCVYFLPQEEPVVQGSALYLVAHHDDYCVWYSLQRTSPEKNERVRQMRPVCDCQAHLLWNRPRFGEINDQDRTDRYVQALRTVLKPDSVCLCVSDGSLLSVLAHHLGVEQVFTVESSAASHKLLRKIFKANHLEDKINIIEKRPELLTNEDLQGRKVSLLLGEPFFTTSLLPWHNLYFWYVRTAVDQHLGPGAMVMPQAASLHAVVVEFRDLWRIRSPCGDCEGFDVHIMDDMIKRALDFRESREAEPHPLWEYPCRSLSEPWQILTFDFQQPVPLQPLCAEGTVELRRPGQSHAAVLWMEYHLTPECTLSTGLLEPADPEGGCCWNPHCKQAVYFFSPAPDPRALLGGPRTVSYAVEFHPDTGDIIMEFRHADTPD
Experimental: as §1

T1 sequence (Q99873 2-371): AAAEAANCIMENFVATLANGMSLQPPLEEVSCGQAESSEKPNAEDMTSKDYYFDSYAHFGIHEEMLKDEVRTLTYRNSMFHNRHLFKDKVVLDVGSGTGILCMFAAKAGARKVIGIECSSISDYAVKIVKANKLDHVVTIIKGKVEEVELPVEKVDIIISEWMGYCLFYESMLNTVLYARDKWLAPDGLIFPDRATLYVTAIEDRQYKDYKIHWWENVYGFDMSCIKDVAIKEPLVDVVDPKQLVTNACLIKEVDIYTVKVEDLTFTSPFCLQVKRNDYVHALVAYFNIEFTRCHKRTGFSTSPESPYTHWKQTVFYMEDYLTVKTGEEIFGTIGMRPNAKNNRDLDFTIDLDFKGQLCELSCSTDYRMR

Row | selectivity index for PRMT7 over PRMT1 (PRMT1) | remaining activity at 10 µM (SMYD3/KMT3E; 10 μM) | remaining activity at 100 µM (SMYD3/KMT3E; 100 μM) | IC50 (PRMT7) | Compound
1 | 38 fold | – | – | – | COC(=O)c1cc(O)c2cc(NC(=O)NCCCCCNC(=N)NC[C@H]3O[C@@H](n4cnc5c(N)ncnc54)[C@H](O)[C@@H]3O)ccc2c1 [1c]
2 | – | 99.1 ± 1.41% | 74.2 ± 1.8% | 5.6 µM | COC(=O)c1cc(O)c2cc(NC(=O)NCCCNC(=N)NC[C@H]3O[C@@H](n4cnc5c(N)ncnc54)[C@H](O)[C@@H]3O)cc(C(F)(F)F)c2c1 [1j, Methyl 6-(3-(3-(3-(((2R,3S,4R,5R)-5-(6-Amino-9H-purin-9-yl)-3,4-dihydroxytetrahydrofuran-2-yl)methyl)guanidino)propyl)ureido)-4-hydroxy-8-(trifluoromethyl)-2-naphthoate]
